Data from patent US20020090619A1, “Methods for identifying mitochondrial divalent cation transporters” (priority 2000, published 2002).
pIC50: −log10 of the molar value.

How the values were obtained:
[1] = tested on: isolated yeast mitochondria; assay: Ca2+ transport in isolated yeast mitochondria expressing aequorin (luminescence); assay type: biochemical, Saccharomyces cerevisiae; settings: FIG. 24
Protocol: For preculture, the transformant was inoculated into 50 ml of SC-U plus 2% glucose, and incubated in an air shaker at 180 rpm and 30° C. At 24 hr, the preculture was transferred to 500 ml of a medium containing 1% yeast extract, 2% peptone, 2% lactate, 1% galactose, 0.012% adenine, pH 5 w/NaOH, and growth was continued under conditions which were otherwise the same. Cells were harvested after an additional 24 hr, spheroplasts were prepared using zymolyase, and mitochondria were isolated by the method of Daum et al. (1982) as previously described (Jung et al., 1997). The final pellet was resuspended at ˜20 mg protein/ml in 0.6 M mannitol, 20 mM HEPES (K^+ salt, pH 6.8). Apoaequorin in the intact or disrupted mitochondria was reconstituted by incubation with coelenterazine as described above for cells.
For most experiments, the mitochondria were present at 0.4 mg protein/ml in a standard medium that contained 0.3 M KCl, 20 mM HEPES, (K^+ salt, pH 7.10), 10 mM KH2PO4, 2 mM EGTA, and 2 mM MgCl2. Other additions are described in greater detail below. Ca^2+ buffers were formed by adding various amounts of CaCl2 to this EGTA containing medium. The free Ca^2+ concentrations which resulted were calculated using a computer program (Brooks et al., 1992 Anal. Biochem. 201:119).
Luminescence measurements were carried out in 6×50 mm culture tubes, using a total volume of 0.3 ml, and were started by injection of 5-20 μl of mitochondria or cells. A SAI model 3000 integrating photometer was employed, with AJD sampling at 0.4 seconds intervals driven by Asyst software. Values were transformed into corresponding Ca^2+ concentrations by computer assisted calculations based upon published calibration methods (Allen et al., 1977 Science 195:996; Brini et al., 1995 J. Biol. Chem. 270:9896). For each value, the ratio of observed luminescence (L) to the potential luminescence remaining (Lmax) was calculated, and compared to a calibration curve which relates this ratio to the free Ca^2+ concentration. Thus, complete calibrated progress curves were generated. The total luminescence available initially (Ltotal) must be known and was determined in separate experiments, wherein a saturating Ca^2+ concentration (20 μM) is employed to discharge the aequorin completely. This value allows Lmax to be calculated at any time, as Ltotal minus the sum of luminescence that already occurred.
The calibration data were obtained at an ionic strength of 335 mM and in the presence of 1 mM Mg^2+, to mimic conditions in the mitochondrial matrix, because both factors influence the affinity of aequorin for Ca2+ (Cobbold et al., 1987 Biochem. J. 248:313). Luminescence values were corrected for low background values that are obtained when Ca^2+ is absent before conducting further calculations.

[2] = tested on: Saccharomyces cerevisiae strain K473; assay: Growth inhibition by Ca2+ of pmc1 mutant yeast; assay type: cell-based; settings: YPD medium, 30° C., 22 hr; read-out: 50% decrease in relative growth (IC50)
Protocol: This example describes growth inhibition by Ca^2+ of Saccharomyces cerevisiae strain K473, a pmc1 mutant lacking function in a vacuolar Ca2+ ATPase (Cunningham et al., 1996, Molec. Cell. Biology 16:2226-37; Cunningham et al., 1994 J. Cell Biol. 124:351-363). The strain was grown at 30° C. on standard YPD medium supplemented with 0, 50, 100, 200 or 300 mM CaCl2, as indicated. […]

[3] = tested on: yeast mitochondria; assay: Membrane potential ΔΨ of isolated yeast mitochondria (safranin O); assay type: biochemical, Saccharomyces cerevisiae
Protocol: (§1) The yeast strain W303-1A (Saccharomyces cerevisiae) was grown aerobically at 30° C. in a medium containing 2% lactate, 1% yeast extract, 2% peptone, 0.05% dextrose, and 0.01% adenine at pH 5.0, and cells were harvested during the logarithmic phase (A600=1.8−2.2). Mitochondria were isolated from spheroplasts as previously described (Jung et al., 1997 J. Biol. Chem. 272:21104), except that 0.6 M sucrose was used in the homogenization medium instead of 0.6 M mannitol (Daum et al., 1982 J. Biol. Chem. 257:13028). The resulting preparations were maintained on ice and were suspended in 0.6 M mannitol 20 mM HEPES (K+) (pH 6.8), containing 0.75 mg/ml BSA and 0.1 mM EGTA. Protein concentration was determined by a reduced volume Biuret method in which 50 μl of the final preparation were solubilized by adding an equal volume of 10% deoxycholate (Na+), with 0.4 ml of Biuret reagent added to the resulting mixture. BSA was employed as the standard.
Unless otherwise noted, mitochondria were incubated at 1 mg protein/ml and at approximately 25° C. in a medium that contained 0.6 M mannitol, 10 mM Pi (K+), 10 mM Hepes (TEA+), pH 7.2, plus 1 mM ethanol as an oxidizable substrate. Compounds having a low solubility in water were added from stock solutions prepared in methanol or DMSO. Ca2+ transport and membrane potential were monitored using the indicating dyes antipyrylazo III (ΔA720-790) and safranin O (ΔA511-533), respectively (Akerman et al., 1976 FEBS Lett. 68:191; Scarpa et al., 1978 Biochem. 17:1378). An SLM Aminco DW-2C spectrophotometer operated in the dual wavelength mode was employed for these purposes. The same instrument, operated in split beam mode, was used to monitor mitochondrial swelling as a decrease in apparent absorbance of mitochondrial suspensions at 540 nm. Oxygen consumption data were obtained using a Clark-type electrode in parallel experiments. Atomic absorption spectroscopy was utilized to monitor the transport of other cations by yeast mitochondria. Briefly, samples were taken at appropriate times and the mitochondria were rapidly sedimented in a microcentrifuge. After carefully removing supernatants, the pellets were solubilized with 2 N percholoric acid (overnight) and centrifuged a second time. The resulting supernatants were diluted with an appropriate volume of distilled water and the concentration of the cation in question was subsequently determined.

[4] = tested on: PMC1/PMR1 double ATPase mutant cells; settings: Cunningham et al., 1994; cited from earlier work
[5] = ETH 129 mediated cation transport into Quin-2 loaded POPC vesicles; assay type: biochemical; settings: 1.0 mM CaCl2, no Val, FIG. 5
Protocol: Unilamellar vesicles loaded with Quin-2 were prepared from 1-palmitoyl-2-oleoyl-sn-glycerophosphatidylcholine (POPC) by freeze-thaw extrusion (Erdahl et al., 1994 Biophys. J. 66:1678; Erdahl et al., 1995 Biophys. J. 69:2350). The formation medium contained 5 mM Quin-2 (K+), 10 mM Hepes (K+), pH 7.00, and 100 mM KCl. A high internal K+ concentration was sought to allow the generation of membrane potentials of varying magnitude (see below). The preparations obtained were applied to Sephadex™ G-50 mini-columns (Pharmacia, Piscataway N.J.) and eluted by low speed centrifugation (Fry et al., 1978 Anal. Biochem. 90:809), to replace the external medium with a 10 mM Hepes buffer (Na+), pH 7.00 (Erdahl et al., 1994 Biophys. J. 66:1678; Erdahl et al., 1995 Biophys. J. 69:2350). The nominal concentration of POPC in final preparations was determined as lipid phosphorus (Bartlett, 1959 J Biol. Chem. 234:466) and was near 80 mM. The average diameter of these vesicles was 71 nm as determined by freeze-fracture electron microscopy (Chapman et al., 1990 Chem. Phys. Lipids 55:73). They contained entrapped K+ at approximately 125 mM, as determined by atomic absorption spectroscopy, and Quin-2 at approximately 6 mM. The latter value was determined by titrating lysed vesicles with a standard solution of CaCl2 and was about one third of the expected value (Erdahl et al., 1995 Bipohys. J. 69:3250). The high solute level in the formation medium reduced the efficiency of Quin-2 entrapment by reducing the effectiveness of a freeze-thaw driven solute concentrating mechanism that normally elevates the internal concentrations of solutes, relative to the external medium (Chapman et al., 1990 Chem. Phys. Lipids 55:73; Chapman et al., 1990 Chem. Phys. Lipids 60:201).
POPC vesicles containing Quin-2 were utilized at a nominal phospholipid concentration of 1.0 mM, and at 25° C. The external medium contained polyvalent cation salts as described below, 100 mM NaCl, or mixtures of NaCl and KCl totaling […], and 10 mM Hepes, pH 7.00, unless otherwise noted. The medium pH was adjusted with NaOH that had been passed over Chelex 100 columns to remove contaminating cations (Erdahl et al., 1994 Biophys. J. 66:1678). In most cases an inside negative membrane electrical potential was present during the experiments. This was generated by the presence of 0.5 μM valinomycin (Val), which transports K+ out of the vesicles electrogenically (Erdahl et al., 1994 Biophys. J. 66:1678). The magnitude of the potential was controlled by varying the concentration ratio of Na+ to K+ in the external medium. A TPP+electrode was used to measure the potential (Broekemeier et al, 1998 Biochem. 37:13059), and thereby to verify that the calculated values were obtained. For these purposes the incubation medium contained 2.0 μM TPP.Cl and the entrapped volume was taken to be 2.02 μl/ml at a nominal POPC concentration of 1.0 mM (Chapman et al., 1990 Chem. Phys. Lipids 55:73).
Val was omitted when an imposed membrane potential was not desired, or in some cases 5 μM of the protonophore carbonyl cyanide m-chlorophenylhydrazone (CCP) was present instead of Val.
The transport of polyvalent cations was monitored by difference absorbance measurements which detected formation of the Quin-2:cation complex within the vesicle lumen. An Aminco DW2a spectrophotometer operated in the dual wavelength mode was employed. In addition, an Oriel No. 59800 band pass filter was used between the cuvette and the beam scrambler-photomultiplier assembly to prevent detection of the fluorescent light emitted by Quin-2. The sample wavelength for all cations was 264 nm. The reference wavelengths were at an isosbestic point in the Quin-2/Quin-2:cation complex difference spectrum of interest. These wavelengths varied slightly from cation to cation, as previously described (Erdahl et al., 1996 Biochem. 35:13817). […]

[6] = tested on: yeast mitochondria; assay: ETH 129 mediated Ca2+ transport in isolated yeast mitochondria (antipyrylazo III); assay type: biochemical, Saccharomyces cerevisiae; settings: BSA 0.5 mg/ml, 60 μM CaCl2, 3.6 μM ETH 129, increasing oleate, FIG. 14
Protocol: as §1, with “BSA was employed as the standard.” left out
Unless otherwise noted, mitochondria were incubated at 1 mg protein/ml and at approximately 25° C. in a medium that contained 0.6 M mannitol, 10 mM Pi (K+), 10 mM Hepes (TEA+), pH 7.2, plus 1 mM ethanol as an oxidizable substrate. […] Ca2+ transport and membrane potential were monitored using the indicating dyes antipyrylazo III (ΔA720-790) and safranin O (ΔA511-533), respectively (Akerman et al., 1976 FEBS Lett. 68:191; Scarpa et al., 1978 Biochem. 17:1378). […]

Structure (SMILES) | external Ca2+ giving half-maximal rate of change in matrix Ca^2+ ([1]; nonrespiring mitochondria) [µM] | external Ca2+ giving half-maximal rate of change in matrix Ca^2+ ([1]; respiring mitochondria (0.5 mM ethanol)) [µM] | pIC50 [2] | effect on ΔΨ, agent alone ([3]; BSA absent, FIG. 11B) | cytostatic Ca^2+ concentrations [4] [µM] | activation of ETH 129 mediated Ca2+ transport [5] | suppression of ΔΨ during titration with exogenous oleate ([3]; ETH 129, free Ca2+ and BSA available, no EGTA, FIG. 16) | oleate level above which ΔΨ is depressed ([3]; excess EGTA (2 mM), ETH 129, CaCl2, BSA present, FIG. 16) | effect of exogenous oleate on ETH 129 mediated Ca2+ accumulation [6]
[Ca+2] [Ca2+] | 0.82 | 1.0 | 1.04 | little effect | ≤ 300 |  |  |  | 
CCCCCCCC/C=C\CCCCCCCC(=O)O [oleate, oleic acid] |  |  |  |  |  | inability of oleate (a lipophilic fatty acid anion) to substitute for CCP | began immediately | exceeded 15 nmol/mg protein | first inhibited further accumulation and then caused a reversal of the transport that had already occurred
